In brackets after ≈: the same amount, converted by molar mass.
Key:
[1] = system: A. flavus ATCC16883; test: Minimal inhibitory concentration (MIC); assay type: cell-based, Aspergillus flavus; conditions: A. flavus ATCC 16883
Experimental: (§1) C. albicans cells, laboratory strain SC5314 or ATCC90028, were cultured on solid BHI (Oxoid) medium at 37° C. for 24 hours and stored at 4° C. for up to one month. Prior to experiments, a colony of C. albicans was sub-cultured into liquid BHI medium overnight at 37° C. Overnight cultures of C.albicans were adjusted to an optical density at 600 nm of 0.1 and incubated with Amphotericin polymers, which were serially diluted 1:2 from 2500-2.44 μg/ml, for 16 hours in a 96 well plate. The concentration of polymer at which there was no visible growth was determined to be the MIC. C.albicans (Robin) ATCC200955, C.tropicalis ATCC200956, A.flavus ATCC16883 and F. keratoplasticum ATCC36031 were similarly cultured on solid Sabrauds (Oxoid) medium at 37° C. for 24 hours and stored at 4° C. for up to one month. Prior to experiments, colonies were sub-cultured into liquid Sabrauds medium overnight at 37° C. All liquid cultures were static apart from A.flavus which was incubated shaking at 100 rpm.

[2] = system: F. keratoplasticum ATCC36031; test: Minimal inhibitory concentration (MIC); assay type: cell-based, Fusarium keratoplasticum; conditions: F. keratoplasticum ATCC 36031
Experimental: as §1

[3] = system: C. albicans SC5314; test: Minimal inhibitory concentration (MIC), no visible growth after 16 h; assay type: cell-based, Candida albicans
Experimental: as §1

[4] = system: C. albicans ATCC90028; test: as above; assay type: cell-based, Candida albicans
Experimental: as §1

[5] = system: C. tropicalis ATCC200956; test: Minimal inhibitory concentration (MIC); assay type: cell-based, Candida tropicalis; conditions: C. tropicalis ATCC200956 (Amp-B non-sensitive)
Experimental: as §1, with “Overnight cultures of C.albicans were adjusted to an optical density at 600 nm of 0.1 and incubated with Amphotericin polymers, which were serially diluted 1:2 from 2500-2.44 μg/ml, for 16 hours in a 96 well plate.” left out

[6] = system: C. albicans ATCC200955; test: Minimal inhibitory concentration (MIC); assay type: cell-based, Candida albicans; conditions: C. albicans ATCC200955 (Amp-B non-sensitive)
Experimental: as §1

[7] = physiological pH; well known; cited from earlier work
[8] = literature reference [19]; cited from earlier work
[9] = from weight MIC and molar density

## C[C@@H]1[C@H](O)[C@@H](C)/C=C/C=C/C=C/C=C/C=C/C=C/C=C/[C@H](O[C@@H]2O[C@H](C)[C@@H](O)[C@H](N)[C@@H]2O)C[C@@H]2O[C@](O)(C[C@@H](O)C[C@@H](O)[C@H](O)CC[C@@H](O)C[C@@H](O)CC(=O)O[C@H]1C)C[C@H](O)[C@H]2C(=O)O [Amphotericin B]
[1]
  Weight based MIC: 1.5 µg·mL
[1]; [9]
  Molar MIC: 1800 µM
[2]
  Weight based MIC: 0.2 µg·mL
[2]; [9]
  Molar MIC: 250 µM
[3]; C. albicans SC5314
  Weight based MIC: 0.4 µg·mL
[3]; C. albicans SC5314, 16 hours
  MIC against SC5314: 0.4 µg/mL (≈ 0.433 µM)
[3]; C. albicans SC5314, from weight MIC and molar density
  Molar MIC: 500 µM
[4]; C. albicans ATCC90028
  Weight based MIC: 0.5 µg·mL
[4]; C. albicans ATCC90028, 16 hours
  MIC against ATCC90028: 4 µg/mL (≈ 4.33 µM)
[4]; C. albicans ATCC90028, from weight MIC and molar density
  Molar MIC: 4800 µM
[5]
  Weight based MIC: >2500 µg·mL
[6]
  Weight based MIC: >2500 µg·mL
[7]
  solubility in water and saline solution: insoluble
[8]
  MIC for amphotericin B: 4.68 to 150 µM
